This passage reports cGMP levels results from patent publication US20090035815A1, “Synthetic Gene for Enhanced Expression in E. Coli” (priority 2007, published 2009).

This assay has as its system PC-12 cells. Description: In-vitro bioassay of recombinant Nesiritide: cGMP induction in PC-12 cells. It is filed as cell-based, Rat. The following applies: 30 mins. From the text: In all five batches of Nesiritide of the present invention, the cGMP induction in PC-12 cells the Nesiritide concentration (nM) is directly proportional to the concentration of Nesiritide used in culture. Culture format: 24-well plate; Cells used: PC-12 cells (Rat adrenal pheochromocytoma); no. of cells plated: 1.0×10^6 cells per well; Parameter measured: cGMP from cell lysate; Method used: Competitive Inhibition Assay (Acetylated format); Kit used: Correlate-EIA cGMP kit Assay Design Inc., USA.
Nesiritide is known to elicit its biological activity via a cGMP second messenger system in vitro and in vivo. PC-12 cells were plated in Plain RPMI medium in 24-well plate and equilibrated at 37° C., 5% CO2 incubator for 2 hrs. Prestimulation medium (RPMI+0.1% BSA+0.1 mM IBMX) was added to cells for 10 mins. It was followed by the addition of different concentrations of Nesiritide for 30 mins at 37° C., 5% CO2 incubator. The cells were lysed with 0.1M HCL for 20 mins followed by 5-7 freeze-thaw cycles. The cell lysates were centrifuged in microfuge at 10000 rpm for 10 mins at 4° C. Protein concentration of the supernatant was estimated by Bradford's method. The supernatant from cell lysates was assayed for cGMP concentration (FIG. 13) using a cGMP kit (Assay Design Inc). The cGMP from cell lysates was estimated from cGMP standard curve. ED50 value was calculated.

Turning to “b-type natriuretic peptide (1-32) [Bachem, reference compound]”, the cGMP levels reads like this: (Nesiritide Conc 25 nM) 0.121 ± 0.006 pmol/mL; (Nesiritide Conc 50 nM) 0.164 ± 0.05 pmol/mL; (Nesiritide Conc 75 nM) 0.327 ± 0.05 pmol/mL; (Nesiritide Conc 100 nM) 0.502 ± 0.05 pmol/mL; (Nesiritide Conc 150 nM) 0.793 ± 0.02 pmol/mL; (Nesiritide Conc 200 nM) 1.206 ± 0.08 pmol/mL.
Regarding “USV B. No 5706: batch of recombinant nesiritide of the present invention (Seq. ID NO:2)”, the cGMP levels reads like this: (Nesiritide Conc 25 nM) 0.114 ± 0.005 pmol/mL; (Nesiritide Conc 50 nM) 0.191 ± 0.01 pmol/mL; (Nesiritide Conc 75 nM) 0.305 ± 0.05 pmol/mL; (Nesiritide Conc 100 nM) 0.478 ± 0.06 pmol/mL; (Nesiritide Conc 150 nM) 0.756 ± 0.02 pmol/mL; (Nesiritide Conc 200 nM) 1.085 ± 0.06 pmol/mL.
Consider “USV B. No 5606: batch of recombinant nesiritide of the present invention (Seq. ID NO:2)”, for which the cGMP levels (Nesiritide Conc 25 nM) came to 0.119 ± 0.01 pmol/mL; the cGMP levels (Nesiritide Conc 50 nM) came out at 0.150 ± 0.03 pmol/mL; the cGMP levels (Nesiritide Conc 75 nM) turned out to be 0.321 pmol/mL; the cGMP levels (Nesiritide Conc 100 nM) worked out at 0.475 ± 0.01 pmol/mL; the cGMP levels (Nesiritide Conc 150 nM) was determined as 0.787 ± 0.07 pmol/mL; the cGMP levels (Nesiritide Conc 200 nM) was 1.006 ± 0.05 pmol/mL.
As to “USV B. No 5406: batch of recombinant nesiritide of the present invention (Seq. ID NO:2)”, the cGMP levels by setting is: (Nesiritide Conc 25 nM) 0.133 ± 0.004 pmol/mL; (Nesiritide Conc 50 nM) 0.161 ± 0.01 pmol/mL; (Nesiritide Conc 75 nM) 0.383 ± 0.02 pmol/mL; (Nesiritide Conc 100 nM) 0.444 ± 0.06 pmol/mL; (Nesiritide Conc 150 nM) 0.799 ± 0.08 pmol/mL; (Nesiritide Conc 200 nM) 1.214 ± 0.06 pmol/mL.
